Earlier results in patent publication US5962660A, “Sialyl Lewis X mimetics incorporating fucopeptides” (The Scripps Research Institute, priority 1997, dated 1999).

Legend:
[1] = for lung injury / tissue accumulation of neutrophils: intravenous infusion of up to 200 μg, rats given intravenous cobra venom
[2] = because of glycosidase reactions

Row | Substance | effective intravenous concentration ([1]; calculated from the 200 μg used) | lung injury [1] | tissue accumulation of neutrophils [1] | IC50 ([1]; rats, read-out: IC50 value in vivo for protecting against lung injury) [nM] | affinity for E-selectin in vitro (E-selectin) | stability in the blood stream [2]
1 | NeuAcα2→3Galβ1→4(Fucα1→3)GlcNAc [SLe^x] | less than 1 μM | dramatically reduced | diminished | ~1000 | relatively weak | unstable
2 | NeuAcα2→3Galβ1→4(Fucα1→3)GlcNAcβ1,3Galβ- [pentamer] | – | dramatically reduced | diminished | – | – | –
